# Experimental data from ChEMBL document CHEMBL1145918, “Synthesis, comparative photosensitizing efficacy, human serum albumin (site II) binding ability, and intracellular localization characteristics of novel benzobacteriochlorins derived from vic-dihydroxybacteriochlorins” (J Med Chem, 2003).
# Target: Albumin (Homo sapiens, UniProt P02768)
# Test: Compound was tested for its binding ability to site II of Human serum albumin (HSA) expressed as binding constant
# Chain of Albumin (P02768 whole entry): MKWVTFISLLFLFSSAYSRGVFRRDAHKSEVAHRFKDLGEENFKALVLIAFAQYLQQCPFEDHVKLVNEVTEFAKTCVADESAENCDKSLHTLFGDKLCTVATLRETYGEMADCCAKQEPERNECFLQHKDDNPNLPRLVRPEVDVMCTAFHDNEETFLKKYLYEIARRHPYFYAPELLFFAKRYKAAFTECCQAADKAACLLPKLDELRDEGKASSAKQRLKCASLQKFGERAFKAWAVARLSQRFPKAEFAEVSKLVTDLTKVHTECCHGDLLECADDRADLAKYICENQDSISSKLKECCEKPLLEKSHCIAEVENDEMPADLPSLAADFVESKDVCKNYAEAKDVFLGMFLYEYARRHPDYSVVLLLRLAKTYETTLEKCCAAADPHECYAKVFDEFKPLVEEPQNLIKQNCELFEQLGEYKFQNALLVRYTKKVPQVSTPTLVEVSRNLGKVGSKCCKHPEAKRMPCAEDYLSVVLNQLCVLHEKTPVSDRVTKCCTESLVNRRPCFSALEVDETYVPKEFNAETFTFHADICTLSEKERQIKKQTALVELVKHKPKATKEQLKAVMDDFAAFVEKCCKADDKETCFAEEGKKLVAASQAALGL
row,Structure (SMILES),K [M⁻¹]
1,CCCCCCN1C(=O)C2=C(C)c3cc4[nH]c(cc5[nH]c(cc6nc(c(c2n3)C1=O)[C@@H](CCC(=O)OC)[C@@H]6C)c(C)c5CC)C1(C)C4=CC=C(C(=O)OC)C1C(=O)OC (stereo not given in full),16100000
2,CCc1c(C)c2cc3nc(c(C(=O)OC)c4nc(cc5[nH]c(cc1[nH]2)C1(C)C5=CC=C(C(=O)OC)C1C(=O)OC)C(C)=C4C(=O)OC)[C@@H](CCC(=O)OC)[C@@H]3C (stereo not given in full),14400000
3,CCc1c(C)c2cc3nc(c4c5nc(cc6[nH]c(cc1[nH]2)C1(C)C6=CC=C(C(=O)OC)C1C(=O)OC)C(C)=C5C(=O)N(Cc1cc(C(F)(F)F)cc(C(F)(F)F)c1)C4=O)[C@@H](CCC(=O)OC)[C@@H]3C (stereo not given in full),16000000
4,CCc1c(C)c2cc3nc(c4c5nc(cc6[nH]c(cc1[nH]2)C1(C)C6=CC=C(C(=O)OC)C1C(=O)OC)C(C)=C5C(=O)C4)[C@@H](CCC(=O)OC)[C@@H]3C (stereo not given in full),10600000
5,CCc1c(C)c2cc3nc(c(CC(=O)OC)c4nc(cc5[nH]c(cc1[nH]2)C1(C)C5=CC=C(C(=O)OC)C1C(=O)OC)C(C)=C4C(=O)OC)[C@@H](CCC(=O)OC)[C@@H]3C (stereo not given in full),17500000
